Measured values from patent publication US8785424B2, “ngCycloartanone derivatives with anticancer activity” (Pierre Fabre Medicament, priority 2009, dated 2014).

Test system: proteasome
Experiment: Cellular proteasome inhibition test: accumulation of 4Ub-Luc reporter (luciferase activity) in DLD-1 4Ub-Luc cell line
Format: cell-based, human
Details: DLD-1 4Ub-Luc cells, 8 hours, epoxomicin = 100%
Summary of the method: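 DLD-1 4Ub-Luc human colon cancer cells, which express a 4-ubiquitin–luciferase fusion that the proteasome degrades, were seeded into white 96-well plates (100 μl of 1·10^5 c/ml) and left to adhere for 24 hours. They were then treated, with 0.1% DMSO as solvent control and 10^−7 M epoxomicin as reference. Cells were rinsed with PBS, lysed in passive lysis buffer and frozen at −20° C. Luciferase activity was measured with a Promega kit at 20-25° C. Each induction factor versus solvent was expressed relative to epoxomicin, set at 100%.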

[1] = concentration tested 5 · 10^−6 M
[2] = concentration tested 5 · 10^−7 M

## C=C(C(=O)[C@H](O)[C@@H](C)[C@H]1[C@@H](OC(C)=O)C[C@@]2(C)[C@@H]3CC[C@H]4[C@H](C)C(=O)CC[C@@]45C[C@@]35CC[C@]12C)[C@@H](C)CO [Compound 14, 1,2-dihydro-22-deacetyl-neoboutomellerone]
[1]
  relative induction factor (IF % luminescence) versus epoxomicin: 10%
Concentration tested 10^−5 M
  relative induction factor (IF % luminescence) versus epoxomicin: 77%
Concentration tested 10^−6 M
  relative induction factor (IF % luminescence) versus epoxomicin: 1%

## C=C(C(=O)[C@H](OC(=O)CNC(=O)OC(C)(C)C)[C@@H](C)[C@H]1[C@@H](OC(C)=O)C[C@@]2(C)C3CCC4[C@H](C)C(=O)C=C[C@@]45C[C@@]35CC[C@]12C)[C@@H](C)COC(C)=O (stereo partly shown) [Compound 60, 22-deacetyl-neoboutomellerone 22-(N-Boc-glycinate)-26-acetyl]
[1]
  relative induction factor (IF % luminescence) versus epoxomicin: 4%
[2]
  relative induction factor (IF % luminescence) versus epoxomicin: 76%
Concentration tested 10^−5 M
  relative induction factor (IF % luminescence) versus epoxomicin: 2%
Concentration tested 10^−6 M
  relative induction factor (IF % luminescence) versus epoxomicin: 71%

## C=C([C@@H](C)COC)C1(O)O[C@H]2C[C@@]3(C)C4CCC5[C@H](C)C(=O)C=C[C@@]56C[C@@]46CC[C@]3(C)[C@H]2[C@H](C)[C@H]1OC(C)=O (stereo partly shown) [Compound 51, 16-deacetyl-26-methoxy-neoboutomellerone-hemiacetal]
[1]
  relative induction factor (IF % luminescence) versus epoxomicin: 31%
Concentration tested 10^−5 M
  relative induction factor (IF % luminescence) versus epoxomicin: 60%
Concentration tested 10^−6 M
  relative induction factor (IF % luminescence) versus epoxomicin: 1%

## C=C(C(=O)[C@H](OC(C)=O)[C@@H](C)[C@H]1[C@@H](OC(C)=O)C[C@@]2(C)[C@@H]3CC[C@H]4[C@H](C)/C(=N/OCc5ccccc5)C=C[C@@]45C[C@@]35CC[C@]12C)[C@@H](C)CO [Compound 36, 3-anti-O-benzyloxime-neoboutomellerone]
[1]
  relative induction factor (IF % luminescence) versus epoxomicin: 12%
Concentration tested 10^−5 M
  relative induction factor (IF % luminescence) versus epoxomicin: 6%
Concentration tested 10^−6 M
  relative induction factor (IF % luminescence) versus epoxomicin: 1%

## C=C(C(=O)[C@H](O)[C@@H](C)[C@H]1[C@@H](OC(C)=O)C[C@@]2(C)[C@@H]3CC[C@H]4[C@H](C)C(=O)C=C[C@@]45C[C@@]35CC[C@]12C)[C@@H](C)CO [Compound 1, 22-deacetyl-neoboutomellerone]
[1]
  relative induction factor (IF % luminescence) versus epoxomicin: 28%
[2]
  relative induction factor (IF % luminescence) versus epoxomicin: 1%
Concentration tested 10^−5 M
  relative induction factor (IF % luminescence) versus epoxomicin: 3%
Concentration tested 10^−6 M
  relative induction factor (IF % luminescence) versus epoxomicin: 45%

## C=C(C(=O)[C@H](OC(C)=O)[C@@H](C)[C@H]1[C@@H](OC(C)=O)C[C@@]2(C)C3CCC4[C@H](C)C(=O)C=C[C@@]45C[C@@]35CC[C@]12C)[C@@H](C)COP(=O)(OCC)OCC (stereo partly shown) [Compound 92, 26-(diethylphosphate)-neoboutomellerone]
[1]
  relative induction factor (IF % luminescence) versus epoxomicin: 16%
[2]
  relative induction factor (IF % luminescence) versus epoxomicin: 3%
Concentration tested 10^−5 M
  relative induction factor (IF % luminescence) versus epoxomicin: 2%
Concentration tested 10^−6 M
  relative induction factor (IF % luminescence) versus epoxomicin: 43%

## C=C(C(=O)[C@H](O)[C@@H](C)[C@H]1[C@@H](OC(C)=O)C[C@@]2(C)C3CCC4[C@H](C)C(=O)C=C[C@@]45C[C@@]35CC[C@]12C)[C@@H](C)COC(C)=O (stereo partly shown) [Compound 17, 26-acetyl-22-deacetyl-neoboutomellerone]
[1]
  relative induction factor (IF % luminescence) versus epoxomicin: 29%
[2]
  relative induction factor (IF % luminescence) versus epoxomicin: 2%
Concentration tested 10^−5 M
  relative induction factor (IF % luminescence) versus epoxomicin: 6%
Concentration tested 10^−6 M
  relative induction factor (IF % luminescence) versus epoxomicin: 26%
